Measured values from patent US20090170830A1, “Tricyclic Beta-Secretase Inhibitors for the Treatment of Alzheimer's Disease” (priority 2005, published 2009).

Biological target: T1, beta-secretase enzyme (BACE 1), soluble human protein (Homo sapiens, UniProt P56817)
T1 construct: soluble (transmembrane domain and cytoplasmic extension excluded) human protein; made in house
Assay: ECL assay: homogeneous end point electrochemiluminescence assay with biotinylated BACE substrate
Assay type: biochemical
Conditions: pH 4.5, rt, 30 min, 10% DMSO, range bounds printed in mixed units (lower nM, upper μM)
Experimental: Enzyme inhibition may be determined as follows.
ECL Assay: A homogeneous end point electrochemiluminescence (ECL) assay is employed using a biotinylated BACE substrate. The Km of the substrate is greater than 100 μM and can not be determined due to the limit of solubility of the substrate. A typical reaction contains approximately 0.1 nM enzyme, 0.25 μM of the substrate, and buffer (50 mM NaOAc, pH 4.5, 0.1 mg/ml BSA, 0.2% CHAPS, 15 mM EDTA and 1 mM deferoxamine) in a total reaction volume of 100 μl. The reaction proceeds for 30 min and is then stopped by the addition of 25 μL of 1 M Tris-HCl, pH 8.0. The resulting enzymatic product is assayed by adding a ruthenylated antibody which specifically recognizes the C-terminal residue of the product. Streptavidin coated magnetic beads are added into the solution and the samples are subjected to M-384 (Igen Inc., Gaithersburg, Md.) analysis. Under these conditions, less than 10% of substrate is processed by BACE 1. The enzyme used in these studies is soluble (transmembrane domain and cytoplasmic extension excluded) human protein produced in a baculovirus expression system. To measure the inhibitory potency for compounds, 12 concentrations of inhibitors are prepared starting from 100 μM with three fold series dilution. Solutions of the inhibitor in DMSO are included in the reaction mixture (final DMSO concentration is 10%). […]

T1 sequence (P56817 46-457 limits assumed): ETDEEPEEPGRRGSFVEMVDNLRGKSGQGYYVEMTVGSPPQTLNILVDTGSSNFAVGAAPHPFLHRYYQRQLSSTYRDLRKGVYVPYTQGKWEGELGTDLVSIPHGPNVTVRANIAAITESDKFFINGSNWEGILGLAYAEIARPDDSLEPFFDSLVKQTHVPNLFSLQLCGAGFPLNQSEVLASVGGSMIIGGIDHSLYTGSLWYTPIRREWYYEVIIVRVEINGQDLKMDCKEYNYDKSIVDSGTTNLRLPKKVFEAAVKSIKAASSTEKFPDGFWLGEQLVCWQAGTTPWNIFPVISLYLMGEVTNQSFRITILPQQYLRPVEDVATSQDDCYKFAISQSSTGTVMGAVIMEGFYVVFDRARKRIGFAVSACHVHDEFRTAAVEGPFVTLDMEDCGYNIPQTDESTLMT

- IC50 in inhibiting the beta-secretase enzyme: 1 nM and 100000 nM
SMILES: CCc1cn2c3c(cc(-c4nnc([C@](C)(N)Cc5ccccc5)o4)cc13)N(C)S(=O)(=O)CC2 [Example 1, (2R)-2-[5-(7-ethyl-1-methyl-2,2-dioxido-3,4-dihydro-1H-[1,2,5]thiadiazepino[3,4,5-hi]indol-9-yl)-1,3,4-oxadiazol-2-yl]-1-phenylpropan-2-amine]
